The values that follow are results of earlier work, collected in patent publication US20210069213A1, “COMPOSITION AND METHOD OF TREATMENT FOR DRY A.M.D. (AGE RELATED MACULAR DEGENERATION)” (EYE CO PTY LTD, priority 2018, published 2021).

In data set [1] the target is T1, mineralocorticoid receptor (Homo sapiens, UniProt P08235).
T1 sequence (P08235 1-984): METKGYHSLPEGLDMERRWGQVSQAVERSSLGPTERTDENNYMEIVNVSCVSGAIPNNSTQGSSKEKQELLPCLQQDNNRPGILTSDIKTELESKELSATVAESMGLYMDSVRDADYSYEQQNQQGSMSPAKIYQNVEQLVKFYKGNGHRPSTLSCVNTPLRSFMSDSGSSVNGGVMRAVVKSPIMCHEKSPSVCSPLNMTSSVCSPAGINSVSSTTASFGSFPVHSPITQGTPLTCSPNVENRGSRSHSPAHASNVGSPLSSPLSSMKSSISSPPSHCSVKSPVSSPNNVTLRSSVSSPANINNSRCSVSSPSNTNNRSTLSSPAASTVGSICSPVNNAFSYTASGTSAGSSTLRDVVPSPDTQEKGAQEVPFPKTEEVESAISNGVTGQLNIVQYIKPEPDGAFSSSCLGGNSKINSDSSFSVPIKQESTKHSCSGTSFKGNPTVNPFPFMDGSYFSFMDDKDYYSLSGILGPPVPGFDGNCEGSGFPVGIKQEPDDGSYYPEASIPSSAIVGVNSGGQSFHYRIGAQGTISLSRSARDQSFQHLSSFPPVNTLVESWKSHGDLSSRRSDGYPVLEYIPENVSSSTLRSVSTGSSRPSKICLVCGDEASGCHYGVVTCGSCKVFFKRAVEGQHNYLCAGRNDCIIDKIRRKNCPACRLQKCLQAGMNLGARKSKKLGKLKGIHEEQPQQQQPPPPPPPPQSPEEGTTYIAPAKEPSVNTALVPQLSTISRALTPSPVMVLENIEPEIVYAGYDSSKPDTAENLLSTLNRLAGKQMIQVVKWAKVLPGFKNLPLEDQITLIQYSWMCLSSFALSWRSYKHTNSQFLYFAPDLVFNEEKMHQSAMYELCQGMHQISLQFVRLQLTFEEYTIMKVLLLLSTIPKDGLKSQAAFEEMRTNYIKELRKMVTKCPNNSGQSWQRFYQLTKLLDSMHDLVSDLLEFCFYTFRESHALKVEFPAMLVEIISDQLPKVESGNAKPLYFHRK
The conditions noted are these: Table 1; hydrocortisone (cortisol) = 1; cited from earlier work.

For a further data set, the target named is T2, glucocorticoid receptor (Homo sapiens, UniProt P04150).
T2 sequence (P04150 1-777): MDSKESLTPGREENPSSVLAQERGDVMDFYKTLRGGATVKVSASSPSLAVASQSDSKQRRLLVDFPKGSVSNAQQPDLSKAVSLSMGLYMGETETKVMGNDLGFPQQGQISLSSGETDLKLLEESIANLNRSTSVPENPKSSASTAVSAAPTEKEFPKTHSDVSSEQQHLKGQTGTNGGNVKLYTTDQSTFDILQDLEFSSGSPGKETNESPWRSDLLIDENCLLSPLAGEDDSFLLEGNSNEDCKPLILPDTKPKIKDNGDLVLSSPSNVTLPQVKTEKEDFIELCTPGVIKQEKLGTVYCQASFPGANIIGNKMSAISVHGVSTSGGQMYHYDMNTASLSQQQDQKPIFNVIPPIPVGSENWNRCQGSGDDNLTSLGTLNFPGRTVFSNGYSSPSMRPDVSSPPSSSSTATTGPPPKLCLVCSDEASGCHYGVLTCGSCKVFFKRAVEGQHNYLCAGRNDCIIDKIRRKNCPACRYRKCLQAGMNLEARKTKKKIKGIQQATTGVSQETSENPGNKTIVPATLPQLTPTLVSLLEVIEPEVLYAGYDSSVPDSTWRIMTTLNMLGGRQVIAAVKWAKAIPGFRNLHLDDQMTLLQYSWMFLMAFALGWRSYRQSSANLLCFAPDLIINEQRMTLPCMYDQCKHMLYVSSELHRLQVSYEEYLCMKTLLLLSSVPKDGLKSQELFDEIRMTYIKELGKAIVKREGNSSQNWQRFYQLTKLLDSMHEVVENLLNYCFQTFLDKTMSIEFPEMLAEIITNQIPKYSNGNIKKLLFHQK
The note with it: cited from earlier work; for GR potency: Table 1, hydrocortisone (cortisol) = 1.

Data set [2] deals with New Zealand albino rabbits. The note with it: cited from earlier work.

Regarding `C[C@]12C=CC(=O)C=C1CC[C@H]1[C@@H]3C[C@@H](O)[C@](O)(C(=O)CO)[C@@]3(C)C[C@H](O)[C@@]12F` [Triamcinolone], the MR potency in data set [1] is recorded as 0. Also, the GR potency at glucocorticoid receptor is reported as 5.

For the compound `CC(=O)OCC(=O)[C@H]1CC[C@H]2[C@@H]3CCC4=CC(=O)CC[C@]4(C)[C@H]3CC[C@]12C` [Deoxycorticosterone acetate], the MR potency in data set [1] was 20. The GR potency on glucocorticoid receptor is on record as 0.

Take `C[C@]12CCC(=O)C=C1CC[C@@H]1[C@@H]2[C@@H](O)C[C@@]2(C)[C@H]1CC[C@]2(O)C(=O)CO` [Hydrocortisone]: in data set [1], the MR potency is reported as 1. In addition, the GR potency at glucocorticoid receptor is listed as 1.

On to `C[C@]12C=CC(=O)C=C1CC[C@@H]1[C@@H]2C(=O)C[C@@]2(C)[C@H]1CC[C@]2(O)C(=O)CO` [Prednisone], for which the MR potency in data set [1] is given as 0.8.

For `C[C@]12CCC(=O)C=C1CC[C@@H]1[C@@H]2C(=O)C[C@@]2(C)[C@H]1CC[C@]2(O)C(=O)CO` [Cortisone], in data set [1], the MR potency is 0.8. On glucocorticoid receptor, the GR potency was 0.8.

Take `C[C@H]1C[C@H]2[C@@H]3CCC4=CC(=O)C=C[C@]4(C)[C@@]3(Cl)[C@@H](O)C[C@]2(C)[C@@]1(O)C(=O)CO` [Beclometasone]: at glucocorticoid receptor (equals 14 mg oral prednisone once/day), the “GR potency, given as dose equivalence” value is given as 8 puffs 4 times a day;.

For `C[C@]12CCC(=O)C=C1CC[C@@H]1[C@@H]2[C@@H](O)C[C@]2(C=O)[C@@H](C(=O)CO)CC[C@@H]12` [Aldosterone], the MR potency in data set [1] was 200-1000. Besides, the GR potency on glucocorticoid receptor is reported as 0.3.

For `C[C@]12CCC(=O)C=C1CC[C@H]1[C@@H]3CC[C@](O)(C(=O)CO)[C@@]3(C)C[C@H](O)[C@@]12F` [fludrocortisone, 9-alpha fluorohydrocortisone], the “ERG change in the other groups” value in data set [2] (intravitreal 2 mg, 1 mg, 400 μg/0.1 ml, two weeks after injection) is recorded as “no significant decrease in ERG”. Also, in data set [2] (intravitreal 4 mg/0.1 mL), the “intravitreal (vitreous) haemorrhage” value was “one eye of this group had a vitreous hemorrhage”. Besides, in data set [2] (intravitreal 4 mg/0.1 ml, two weeks after injection), the ERG change result is on record as “One eye in the 4 mg/0.1 ml fludrocortisone group exhibited significant decreases in ERG”. In addition, the “signs of retinal toxicity on slit-lamp examination, indirect ophthalmoscopy, or light microscopy” value in data set [2] (rabbit, in vivo) is given as “no signs of retinal toxicity”.

Take `C[C@]12C=CC(=O)C=C1CC[C@@H]1[C@@H]2[C@@H](O)C[C@@]2(C)[C@H]1CC[C@]2(O)C(=O)CO` [Prednisolone]: the MR potency in data set [1] was 0.8. In addition, the GR potency on glucocorticoid receptor is on record as 4.
